Measured values from patent US11896680B2, “Detection method” (Mie University, priority 2017, dated 2024).

Assays:
[1] = tested on: large intestine of a mouse (normal mucosal tissue); assay: vital staining of normal mouse large intestine, imaged with confocal or multiphoton laser microscope
Description: (§1) 100 mg of curcumin (Tokyo Kasei, cat. #C2302, purity 97.0%) was suspended in 5 mL of ethanol, and further diluted 10-fold with ethanol. It was mixed with the same amount of glycerin, and further diluted 10-fold with glycerin. The mixture was mixed with the same amount of purified water to obtain a staining solution of curcumin. As for Red #106, its staining solution is obtained by dissolving the powder in saline to the concentration of 1 mg/mL.
(§2) C57BL/6N mice purchased from Japan SLC, Inc. were used in the tests. All tests were performed on male, 8-week-old mice weighing 20˜25 grams.
(§3) A multiphoton laser microscope of FVMPE-RS (Olympus) was used with the irradiation wavelength of 800 nm. Laser irradiation was performed at 5.8˜48.2% of its full power output. A confocal laser microscope of FV1000 (Olympus) was used with the irradiation wavelength of 488 nm and 594 nm, wherein the laser irradiation at 488 nm was performed at […] of its full power output, and the laser irradiation at 594 nm was performed at 13˜13.5% of its full power output. The direction of irradiation and staining from serosal or luminal side are described in the figures.

[2] = tested on: large intestine (cancer tumor site) of a colon cancer mouse; assay: vital staining of cancer tumor site in large intestine of colon cancer mouse, imaged with laser microscope; assay type: in vivo
Description: as §1, §2
Model mice with colon cancer were prepared by intraperitoneally administering 10 mg/kg of azoxymethane (AOM) dissolved in saline 4 times at weekly intervals to C57BL/6N mice.
as §3

[3] = five-layer structure of normal large intestine
[4] = stained and photographed from luminal side, FIG. 11A and 11B
[5] = stained from serosa side, confocal laser microscope, FIG. 5c

Row | SMILES | staining of network of capillaries surrounding the glandular structures of epithelial and glandular layers (1) [1, 3] | staining of the smooth muscle in muscle layer (4) [1, 3] | staining of the smooth muscle in muscularis mucosae (2) [1, 3] | staining of the wall of a thick blood vessel inside muscle layer [1, 3] | staining of cytoplasm of invaded cancer cells inside smooth muscle layer relative to surrounding tissues ([2]; stained and observed from serosal side, confocal laser microscope, FIG. 10A) | staining of cytoplasm of cancer cells [2, 4] | staining of nuclei of cancer cells [2, 4] | staining of Auerbach's plexus inside muscle layer [1, 3] | staining of glandular cells in epithelial and glandular layers (1) [1, 3] | staining of nerve fibers of Auerbach's plexus [1, 5] | staining of perikaryon of Auerbach's plexus [1, 5]
1 | CCN(CC)c1ccc2c(-c3ccc(S(=O)(=O)[O-])cc3S(=O)(=O)[O-])c3ccc(=[N+](CC)CC)cc-3oc2c1.[Na+] [Red #106] | severely positive | mildly positive | mildly positive | severely positive | – | – | – | – | – | – | –
2 | COc1cc(/C=C/C(=O)CC(=O)/C=C/c2ccc(O)c(OC)c2)ccc1O [curcumin] | – | mildly positive | severely positive | – | darker than surrounding tissues | stained severely | stained negatively | severely positive | severely positive | lightly | darkly
